The numbers were not newly measured in patent US7767688B2, “Combination of pyrimidylaminobenzamide compounds and imatinib for treating gastrointestinal stromal tumours” (Novartis AG, priority 2005, dated 2010), which cites them from elsewhere.

In this data set the target is PDGFRA V561D juxtamembrane domain mutation (Homo sapiens, UniProt P16234, V561D). The following applies: V561D compared with D842V kinase domain mutation.
Chain of PDGFRA V561D juxtamembrane domain mutation (P16234 24-1089 V561D): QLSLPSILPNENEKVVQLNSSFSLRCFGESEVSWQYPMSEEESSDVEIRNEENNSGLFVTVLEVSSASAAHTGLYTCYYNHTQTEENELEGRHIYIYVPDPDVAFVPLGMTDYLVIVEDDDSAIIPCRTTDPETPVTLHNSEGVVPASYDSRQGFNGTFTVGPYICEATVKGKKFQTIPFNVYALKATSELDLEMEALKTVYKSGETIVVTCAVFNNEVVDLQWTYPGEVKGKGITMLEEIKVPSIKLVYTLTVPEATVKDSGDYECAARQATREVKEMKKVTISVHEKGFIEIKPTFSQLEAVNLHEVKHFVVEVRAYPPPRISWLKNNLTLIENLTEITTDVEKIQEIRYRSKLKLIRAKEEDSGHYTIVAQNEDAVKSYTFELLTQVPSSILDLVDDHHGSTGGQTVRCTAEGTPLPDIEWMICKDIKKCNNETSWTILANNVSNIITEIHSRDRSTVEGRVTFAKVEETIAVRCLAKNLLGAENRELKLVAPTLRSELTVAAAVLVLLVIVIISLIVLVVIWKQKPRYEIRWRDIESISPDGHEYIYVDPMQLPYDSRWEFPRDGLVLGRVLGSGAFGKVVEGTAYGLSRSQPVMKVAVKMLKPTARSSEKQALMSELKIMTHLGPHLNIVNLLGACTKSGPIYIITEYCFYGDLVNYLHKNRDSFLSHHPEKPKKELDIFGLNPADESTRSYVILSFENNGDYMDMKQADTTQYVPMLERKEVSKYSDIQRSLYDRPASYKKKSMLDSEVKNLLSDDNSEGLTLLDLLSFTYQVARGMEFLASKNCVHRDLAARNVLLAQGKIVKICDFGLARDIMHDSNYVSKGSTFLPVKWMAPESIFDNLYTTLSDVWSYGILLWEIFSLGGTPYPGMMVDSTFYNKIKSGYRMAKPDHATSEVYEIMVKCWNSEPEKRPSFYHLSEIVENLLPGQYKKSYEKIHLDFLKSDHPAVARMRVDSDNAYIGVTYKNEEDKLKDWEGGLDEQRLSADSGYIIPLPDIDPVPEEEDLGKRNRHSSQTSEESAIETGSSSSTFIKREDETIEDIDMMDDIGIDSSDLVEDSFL

For `Cc1ccc(NC(=O)c2ccc(CN3CCN(C)CC3)cc2)cc1Nc1nccc(-c2cccnc2)n1` [imatinib], the “Sensitivity to imatinib by location of PDGFRA mutation” value is recorded as “more sensitive to imatinib than the D842V kinase domain mutation”.
